Laboratory results: US20100298347A1, “SUBSTITUTED 2-NAPHTHOIC ACIDS AS ANTAGONISTS OF GPR105 ACTIVITY” (MERCK FROSST CANADA LTD, priority 2007, published 2010)

target: T1, chimpanzee GPR105 protein (Pan troglodytes, UniProt A0A2J8P2M1); assay: Cell-Binding Assay: FLIPR calcium signaling in HEK/GPR105/Gqi5 cells, inhibition of UDP-glucose agonist; type: cell-based; conditions: HEK cells expressing chimpanzee GPR105 and Gqi5; UDP-glucose agonist at EC80; inhibition of Ca2+ signaling by FLIPR
T1 construct: expressed in transfected cells
T1 sequence (A0A2J8P2M1 1-338): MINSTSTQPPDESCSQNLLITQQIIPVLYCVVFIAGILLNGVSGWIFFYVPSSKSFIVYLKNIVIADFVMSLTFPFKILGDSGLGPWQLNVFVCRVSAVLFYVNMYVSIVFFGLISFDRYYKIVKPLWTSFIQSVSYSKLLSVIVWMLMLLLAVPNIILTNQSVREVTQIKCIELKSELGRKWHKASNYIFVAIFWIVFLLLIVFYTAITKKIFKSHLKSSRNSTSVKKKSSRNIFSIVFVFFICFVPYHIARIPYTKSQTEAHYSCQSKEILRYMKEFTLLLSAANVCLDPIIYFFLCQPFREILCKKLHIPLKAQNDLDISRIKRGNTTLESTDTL
Description: A stable HEK clonal cell line expressing the chimpanzee GPR105 protein and the chimeric G protein Gqi5 was developed. The chimeric Gqi5 forces the coupling of GPR105 through the Gq (calcium) pathway and allows for monitoring of calcium signaling using a calcium binding fluorescent dye and the FLIPR (fluorometric imaging plate reader, MDS Sciex). 12,500 HEK/GPR105/Gqi5 expressing cells were plated in 25 μL Dulbecco's Modified Eagle's Medium (DMEM) containing 10% fetal bovine serum (FBS) onto 384-well, poly-D-lysine coated plates. Cells were incubated overnight at 37° C. and 5% CO2 to form a monolayer. On the following day, 30 μl, of fluorescent no-wash dye was added to the cell monolayer and the plate was incubated for […] at 37° C., 5% CO2. […] of compound in 100% DMSO was added to cell/dye incubation using acoustic dispensing (Echo™, Labcyte). Following a 20 minute incubation of compound at room temperature, 6.25 μL of UDP-glucose agonist (at EC80) in Hank's Balanced Salt Solution (HBSS) containing 20 mM Hepes was added to cells and Ca^2+ signaling was monitored by FLIPR. Quantitation of the % inhibition of Ca^2+ signaling by antagonist was calculated using the maximum fluorescent signal detected. IC50's for the compounds of structural formula (I) were calculated as follows:
a.) Basal=incubation of cells+DMSO+Buffer; b.) EC80=incubation of cells of DMSO+agonist to achieve 80% maximum stimulation of calcium release; c.) Compound=incubation of cells+antagonist in DMSO+EC80 agonist; d.) Calcium release monitored by Fluorescence (RFU relative fluorescence units) using the FLIPR; e.) The percentage of inhibition was calculated according to the equation: (1−(compound sample−Basal)/(EC80−Basal))×100; f.) The percentage of inhibition at each dose was plotted, the Four Parameter Logistic Fit performed to draw the curve and the IC50 is the compound dose where the % inhibition=50%.

SMILES | IC50
O=C(O)c1cc(-c2ccc([C@@H](O)C(F)F)cc2)c2ccc(-c3ccc(F)cc3)cc2c1 | 0.014 µM
O=C(O)c1cc(-c2ccc([C@@H](O)C(F)(F)F)cc2)c2ccc(-c3ccc(C(F)(F)F)cc3)cc2c1 | 0.0113 µM
Cc1cccc(C)c1COc1ccc2c(-c3ccc4c(c3)OCO4)cc(C(=O)O)cc2c1 | 0.0194 µM
Cc1cc(F)cc(C)c1COc1ccc2c(-c3ccsc3)cc(C(=O)O)cc2c1 | 0.0144 µM
C[S+]([O-])c1ccc(-c2cc(C(=O)O)cc3cc(-c4ccc(C(F)(F)F)cc4)ccc23)cc1 (centres unmarked) | 0.0139 µM
O=C(O)c1cc(-c2ccccc2)c2ccc(OCc3c(Cl)ccc(Cl)c3Cl)cc2c1 | 0.0217 µM
O=C(O)c1cc(-c2ccsc2)c2ccc(OCc3c(F)cccc3F)cc2c1 | 0.0226 µM
Cc1cccc(C)c1COc1ccc2c(-c3ccc(S(C)(=O)=O)cc3)cc(C(=O)O)cc2c1 | 0.0119 µM
Cc1cccc(C)c1COc1ccc2c(-c3ccc(CO)cc3)cc(C(=O)O)cc2c1 | 0.0166 µM
Cc1cccc(C)c1COc1ccc2c(-c3ccc(C(=O)O)cc3)cc(C(=O)O)cc2c1 | 0.011 µM
Cc1cccc(C)c1COc1ccc2c(OCc3ccccc3)cc(C(=O)O)cc2c1 | 0.0212 µM
O=C(O)c1cc(-c2csc(C(O)C(F)F)c2)c2ccc(-c3ccc(C(F)(F)F)cc3)cc2c1 (centres unmarked) | 0.0071 µM
COc1ccccc1COc1cc(C(=O)O)cc2cc(OCc3c(C)cccc3C)ccc12 | 0.0141 µM
Cc1cccc(C)c1COc1ccc2c(-c3ccc(O)cc3)cc(C(=O)O)cc2c1 | 0.0184 µM
CS(=O)(=O)c1cc(-c2cc(C(=O)O)cc3cc(-c4ccc(OC(F)(F)F)cc4)ccc23)cs1 | 0.0239 µM
O=C(O)c1cc(-c2ccsc2)c2ccc(-c3ccc(OC(F)(F)F)cc3)cc2c1 | 0.0127 µM
Cc1cccc(C)c1COc1ccc2c(-c3ccc(C=O)cc3)cc(C(=O)O)cc2c1 | 0.0225 µM
O=C(O)c1cc(-c2ccsc2)c2ccc(OCc3c(Cl)ccc(Cl)c3Cl)cc2c1 | 0.0073 µM
O=C(O)c1cc(-c2ccc([C@@H](O)C(F)F)cc2)c2ccc(-c3ccc(C(F)(F)F)cc3)cc2c1 | 0.0054 µM
O=C(O)c1cc(-c2ccc(C3CCNCC3)cc2)c2ccc(-c3ccc(C(F)(F)F)cc3)cc2c1 | 0.0022 µM
O=C(O)c1cc(-c2ccc(C(O)C(F)(F)F)cc2)c2ccc(-c3ccc(C(F)(F)F)cc3)cc2c1 (centres unmarked) | 0.013 µM

SMILES | IC50
O=C(O)c1cc(-c2ccsc2)c2ccc(OCc3c(Cl)cccc3Br)cc2c1 | 0.0178 µM
O=C(O)c1cc(-c2ccsc2)c2ccc(OCc3c(Cl)cncc3Cl)cc2c1 [drawing 30] | 0.0151 µM
O=C(O)c1cc(-c2ccsc2)c2ccc(OCc3cc(C(F)(F)F)ccc3Cl)cc2c1 | 0.026 µM
CSc1ccc(-c2ccc3c(-c4ccc([C@@H](O)C(F)F)cc4)cc(C(=O)O)cc3c2)cc1 | 0.0124 µM
Cc1cccc(C)c1COc1ccc2c(-c3ccc(C(C)(C)O)cc3)cc(C(=O)O)cc2c1 | 0.0161 µM
O=C(O)c1cc(-c2ccsc2)c2ccc(OCc3c(Br)cccc3Br)cc2c1 | 0.0243 µM
O=C(O)c1cc(-c2ccsc2)c2ccc(OCc3c(F)cc(F)cc3F)cc2c1 | 0.0105 µM
Cc1ccc(Cl)c(COc2ccc3c(-c4ccsc4)cc(C(=O)O)cc3c2)c1F | 0.0203 µM
O=C(O)c1cc(-c2ccc(-c3nnc[nH]3)cc2)c2ccc(-c3ccc(C(F)(F)F)cc3)cc2c1 | 0.0133 µM
O=C(O)c1cc(-c2ccsc2)c2ccc(OCc3c(Cl)cccc3Cl)cc2c1 | 0.0094 µM
O=C(O)c1cc(-c2ccc(C3(O)CCNCC3)cc2)c2ccc(-c3ccc(C(F)(F)F)cc3)cc2c1 | 0.0063 µM
O=C(O)c1cc(-c2ccsc2)c2ccc(OCc3c(Cl)cncc3Cl)cc2c1 [drawing 14] | 0.0075 µM
Cc1ccc(C(F)(F)F)cc1COc1ccc2c(-c3ccsc3)cc(C(=O)O)cc2c1 | 0.0168 µM
Cc1cccc(C)c1COc1ccc2c(-c3ccsc3)cc(C(=O)O)cc2c1 | 0.0163 µM
O=C(O)c1cc2cc(-c3ccc(C(F)(F)F)cc3)ccc2c(-c2ccc([C@@H](O)C(F)F)cc2)c1F | 0.0248 µM
O=C(O)c1cc2cc(-c3ccc(C(F)(F)F)cc3)ccc2c(-c2ccc([C@H](O)C(F)(F)F)cc2)c1F | 0.0255 µM
CS(=O)(=O)c1cc(-c2cc(C(=O)O)cc3cc(-c4ccc(C(F)(F)F)cc4)ccc23)cs1 | 0.0122 µM
O=C(O)c1cc(-c2ccsc2)c2ccc(OCc3c(F)cccc3Cl)cc2c1 | 0.0125 µM
O=C(O)c1cc(-c2ccc(-c3cn4cccnc4n3)cc2)c2ccc(-c3ccc(C(F)(F)F)cc3)cc2c1 | 0.003 µM
CC(=O)c1ccc(-c2cc(C(=O)O)cc3cc(OCc4c(C)cccc4C)ccc23)cc1 | 0.0175 µM
